Measurements taken from ChEMBL document CHEMBL1909294, “Translating clinical findings into knowledge in drug safety evaluation--drug induced liver injury prediction system (DILIps)” (PLoS Comput Biol, 2011).

Columns and labels:
Hepatotoxicity [1] = tested on: Hepatotoxicity;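 on HepSE Combined Scores: combined hepatic side effect score as listed in the training data of the Drug Induced Liver Injury Prediction System (DILIps)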;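 on HepSE cholecystitis: Cholecystitis-related hepatic side effect score drawn from the DILIps (drug-induced liver injury prediction) training data set; call rule not given here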; on HepSE hepatic failure: call rule not given here;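 on HepSE hepatitis: Hepatitis-related hepatic side effect score taken from the training data of DILIps, a prediction system for drug-induced liver injury; call rule not given here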;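 on HepSE hepatomegaly: hepatic side effect score for hepatomegaly, taken from the training set of the DILIps drug-induced liver injury prediction system; call rule not given here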; on HepSE liver disease: call rule not given here;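 on HepSE liver function tests abnormal: hepatic side effect score taken from the DILIps (drug-induced liver injury prediction system) training data, here covering abnormal liver function test findings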
Hepatotoxicity [2] = tested on: Hepatotoxicity; remark: listed apart in the source;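 on HepSE Combined Scores: combined hepatic side effect score as listed in the training data of the Drug Induced Liver Injury Prediction System (DILIps)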;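 on HepSE cholecystitis: Cholecystitis-related hepatic side effect score drawn from the DILIps (drug-induced liver injury prediction) training data set; call rule not given here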; on HepSE hepatic failure: call rule not given here;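 on HepSE hepatitis: Hepatitis-related hepatic side effect score taken from the training data of DILIps, a prediction system for drug-induced liver injury; call rule not given here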;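 on HepSE hepatomegaly: hepatic side effect score for hepatomegaly, taken from the training set of the DILIps drug-induced liver injury prediction system; call rule not given here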; on HepSE liver disease: call rule not given here;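 on HepSE liver function tests abnormal: hepatic side effect score taken from the DILIps (drug-induced liver injury prediction system) training data, here covering abnormal liver function test findings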
Hepatotoxicity [3] = tested on: Hepatotoxicity; remark: listed apart in the source;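 on HepSE Combined Scores: combined hepatic side effect score as listed in the training data of the Drug Induced Liver Injury Prediction System (DILIps)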;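 on HepSE cholecystitis: Cholecystitis-related hepatic side effect score drawn from the DILIps (drug-induced liver injury prediction) training data set; call rule not given here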; on HepSE hepatic failure: call rule not given here;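 on HepSE hepatitis: Hepatitis-related hepatic side effect score taken from the training data of DILIps, a prediction system for drug-induced liver injury; call rule not given here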;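 on HepSE hepatomegaly: hepatic side effect score for hepatomegaly, taken from the training set of the DILIps drug-induced liver injury prediction system; call rule not given here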; on HepSE liver disease: call rule not given here;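 on HepSE liver function tests abnormal: hepatic side effect score taken from the DILIps (drug-induced liver injury prediction system) training data, here covering abnormal liver function test findings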
Hepatotoxicity [4] = tested on: Hepatotoxicity; remark: listed apart in the source;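 on HepSE Combined Scores: combined hepatic side effect score as listed in the training data of the Drug Induced Liver Injury Prediction System (DILIps)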;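 on HepSE cholecystitis: Cholecystitis-related hepatic side effect score drawn from the DILIps (drug-induced liver injury prediction) training data set; call rule not given here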; on HepSE hepatic failure: call rule not given here;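 on HepSE hepatitis: Hepatitis-related hepatic side effect score taken from the training data of DILIps, a prediction system for drug-induced liver injury; call rule not given here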;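 on HepSE hepatomegaly: hepatic side effect score for hepatomegaly, taken from the training set of the DILIps drug-induced liver injury prediction system; call rule not given here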; on HepSE liver disease: call rule not given here;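 on HepSE liver function tests abnormal: hepatic side effect score taken from the DILIps (drug-induced liver injury prediction system) training data, here covering abnormal liver function test findings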
Hepatotoxicity [5] = tested on: Hepatotoxicity; remark: listed apart in the source; on HepSE hepatic failure: call rule not given here; on HepSE liver disease: call rule not given here
Hepatotoxicity [6] = tested on: Hepatotoxicity; remark: listed apart in the source; on HepSE hepatic failure: call rule not given here; on HepSE liver disease: call rule not given here
Hepatotoxicity [7] = tested on: Hepatotoxicity; remark: listed apart in the source
Hepatotoxicity [8] = tested on: Hepatotoxicity; remark: listed apart in the source
Hepatotoxicity [9] = tested on: Hepatotoxicity; remark: listed apart in the source
Hepatotoxicity [10] = tested on: Hepatotoxicity; remark: listed apart in the source
Hepatotoxicity [11] = tested on: Hepatotoxicity; remark: listed apart in the source
Hepatotoxicity [12] = tested on: Hepatotoxicity; remark: listed apart in the source
Hepatotoxicity [13] = tested on: Hepatotoxicity; remark: listed apart in the source
Hepatotoxicity [14] = tested on: Hepatotoxicity; remark: listed apart in the source

CO[C@H]1C[C@@H]2CC[C@@H](C)[C@@](O)(O2)C(=O)C(=O)N2CCCC[C@H]2C(=O)O[C@H]([C@H](C)C[C@@H]2CC[C@@H](O)[C@H](OC)C2)CC(=O)[C@H](C)/C=C(\C)[C@@H](O)[C@@H](OC)C(=O)[C@H](C)C[C@H](C)/C=C/C=C/C=C/1C [SIROLIMUS]
HepSE_hepatomegaly (Hepatotoxicity [1]): 0 | HepSE_Combined Scores (Hepatotoxicity [2]): 3 | HepSE_hepatitis (Hepatotoxicity [3]): 0 | HepSE_hepatic failure (Hepatotoxicity [4]): 0 | HepSE_cholecystitis (Hepatotoxicity [5]): 0 | HepSE_hepatic necrosis (Hepatotoxicity [6]): 1 | HepSE_liver disease (Hepatotoxicity [7]): 0 | HepSE_liver function tests abnormal (Hepatotoxicity [8]): 1 | HepSE_elevated liver function tests (Hepatotoxicity [9]): 0 | HepSE_cholelithiasis (Hepatotoxicity [10]): 0 | HepSE_cirrhosis (Hepatotoxicity [11]): 0 | HepSE_bilirubinemia (Hepatotoxicity [12]): 1 | HepSE_liver fatty (Hepatotoxicity [13]): 0 | HepSE_jaundice (Hepatotoxicity [14]): 0

CN(C)C(=N)N=C(N)N [METFORMIN]
HepSE_hepatomegaly (Hepatotoxicity [1]; Liver): 0 | HepSE_Combined Scores (Hepatotoxicity [2]; Liver): 2 | HepSE_hepatitis (Hepatotoxicity [3]; Liver): 1 | HepSE_hepatic failure (Hepatotoxicity [4]; Liver): 0 | HepSE_cholecystitis (Hepatotoxicity [5]; Liver): 0 | HepSE_hepatic necrosis (Hepatotoxicity [6]; Liver): 0 | HepSE_liver disease (Hepatotoxicity [7]; Liver): 0 | HepSE_liver function tests abnormal (Hepatotoxicity [8]; Liver): 1 | HepSE_elevated liver function tests (Hepatotoxicity [9]; Liver): 0 | HepSE_cholelithiasis (Hepatotoxicity [10]; Liver): 0 | HepSE_cirrhosis (Hepatotoxicity [11]; Liver): 0 | HepSE_bilirubinemia (Hepatotoxicity [12]; Liver): 0 | HepSE_liver fatty (Hepatotoxicity [13]; Liver): 0 | HepSE_jaundice (Hepatotoxicity [14]; Liver): 0

C=C1/C(=C\C=C2/CCC[C@]3(C)[C@@H]([C@H](C)CCCC(C)(C)O)CC[C@@H]23)C[C@@H](O)C[C@@H]1O [CALCITRIOL]
HepSE_hepatomegaly (Hepatotoxicity [1]): 0 | HepSE_Combined Scores (Hepatotoxicity [2]): 0 | HepSE_hepatitis (Hepatotoxicity [3]): 0 | HepSE_hepatic failure (Hepatotoxicity [4]): 0 | HepSE_cholecystitis (Hepatotoxicity [5]): 0 | HepSE_hepatic necrosis (Hepatotoxicity [6]): 0 | HepSE_liver disease (Hepatotoxicity [7]): 0 | HepSE_liver function tests abnormal (Hepatotoxicity [8]): 0 | HepSE_elevated liver function tests (Hepatotoxicity [9]): 0 | HepSE_cholelithiasis (Hepatotoxicity [10]): 0 | HepSE_cirrhosis (Hepatotoxicity [11]): 0 | HepSE_bilirubinemia (Hepatotoxicity [12]): 0 | HepSE_liver fatty (Hepatotoxicity [13]): 0 | HepSE_jaundice (Hepatotoxicity [14]): 0

c1ccc2c(c1)CCCC2C1=NCCN1 (configuration not stated) [TETRAHYDROZOLINE]
HepSE_hepatomegaly (Hepatotoxicity [1]): 0 | HepSE_Combined Scores (Hepatotoxicity [2]): 0 | HepSE_hepatitis (Hepatotoxicity [3]): 0 | HepSE_hepatic failure (Hepatotoxicity [4]): 0 | HepSE_cholecystitis (Hepatotoxicity [5]): 0 | HepSE_hepatic necrosis (Hepatotoxicity [6]): 0 | HepSE_liver disease (Hepatotoxicity [7]): 0 | HepSE_liver function tests abnormal (Hepatotoxicity [8]): 0 | HepSE_elevated liver function tests (Hepatotoxicity [9]): 0 | HepSE_cholelithiasis (Hepatotoxicity [10]): 0 | HepSE_cirrhosis (Hepatotoxicity [11]): 0 | HepSE_bilirubinemia (Hepatotoxicity [12]): 0 | HepSE_liver fatty (Hepatotoxicity [13]): 0 | HepSE_jaundice (Hepatotoxicity [14]): 0

CSc1ccc2c(c1)N(CCC1CCCCN1C)c1ccccc1S2 (configuration not stated) [THIORIDAZINE]
HepSE_hepatomegaly (Hepatotoxicity [1]): 0 | HepSE_Combined Scores (Hepatotoxicity [2]): 1 | HepSE_hepatitis (Hepatotoxicity [3]): 0 | HepSE_hepatic failure (Hepatotoxicity [4]): 0 | HepSE_cholecystitis (Hepatotoxicity [5]): 0 | HepSE_hepatic necrosis (Hepatotoxicity [6]): 0 | HepSE_liver disease (Hepatotoxicity [7]): 0 | HepSE_liver function tests abnormal (Hepatotoxicity [8]): 0 | HepSE_elevated liver function tests (Hepatotoxicity [9]): 0 | HepSE_cholelithiasis (Hepatotoxicity [10]): 0 | HepSE_cirrhosis (Hepatotoxicity [11]): 0 | HepSE_bilirubinemia (Hepatotoxicity [12]): 0 | HepSE_liver fatty (Hepatotoxicity [13]): 0 | HepSE_jaundice (Hepatotoxicity [14]): 1

CC1=NS(=O)(=O)c2cc(Cl)ccc2N1 [DIAZOXIDE]
HepSE_hepatomegaly (Hepatotoxicity [1]): 0 | HepSE_Combined Scores (Hepatotoxicity [2]): 0 | HepSE_hepatitis (Hepatotoxicity [3]): 0 | HepSE_hepatic failure (Hepatotoxicity [4]): 0 | HepSE_cholecystitis (Hepatotoxicity [5]): 0 | HepSE_hepatic necrosis (Hepatotoxicity [6]): 0 | HepSE_liver disease (Hepatotoxicity [7]): 0 | HepSE_liver function tests abnormal (Hepatotoxicity [8]): 0 | HepSE_elevated liver function tests (Hepatotoxicity [9]): 0 | HepSE_cholelithiasis (Hepatotoxicity [10]): 0 | HepSE_cirrhosis (Hepatotoxicity [11]): 0 | HepSE_bilirubinemia (Hepatotoxicity [12]): 0 | HepSE_liver fatty (Hepatotoxicity [13]): 0 | HepSE_jaundice (Hepatotoxicity [14]): 0

COc1cc2nc(N3CCN(C(=O)c4ccco4)CC3)nc(N)c2cc1OC [PRAZOSIN]
HepSE_hepatomegaly (Hepatotoxicity [1]): 0 | HepSE_Combined Scores (Hepatotoxicity [2]): 0 | HepSE_hepatitis (Hepatotoxicity [3]): 0 | HepSE_hepatic failure (Hepatotoxicity [4]): 0 | HepSE_cholecystitis (Hepatotoxicity [5]): 0 | HepSE_hepatic necrosis (Hepatotoxicity [6]): 0 | HepSE_liver disease (Hepatotoxicity [7]): 0 | HepSE_liver function tests abnormal (Hepatotoxicity [8]): 0 | HepSE_elevated liver function tests (Hepatotoxicity [9]): 0 | HepSE_cholelithiasis (Hepatotoxicity [10]): 0 | HepSE_cirrhosis (Hepatotoxicity [11]): 0 | HepSE_bilirubinemia (Hepatotoxicity [12]): 0 | HepSE_liver fatty (Hepatotoxicity [13]): 0 | HepSE_jaundice (Hepatotoxicity [14]): 0

Cc1ccc(C(=O)c2cc(O)c(O)c([N+](=O)[O-])c2)cc1 [TOLCAPONE]
HepSE_hepatomegaly (Hepatotoxicity [1]; Liver): 0 | HepSE_Combined Scores (Hepatotoxicity [2]; Liver): 2 | HepSE_hepatitis (Hepatotoxicity [3]; Liver): 0 | HepSE_hepatic failure (Hepatotoxicity [4]; Liver): 0 | HepSE_cholecystitis (Hepatotoxicity [5]; Liver): 1 | HepSE_hepatic necrosis (Hepatotoxicity [6]; Liver): 0 | HepSE_liver disease (Hepatotoxicity [7]; Liver): 0 | HepSE_liver function tests abnormal (Hepatotoxicity [8]; Liver): 0 | HepSE_elevated liver function tests (Hepatotoxicity [9]; Liver): 0 | HepSE_cholelithiasis (Hepatotoxicity [10]; Liver): 1 | HepSE_cirrhosis (Hepatotoxicity [11]; Liver): 0 | HepSE_bilirubinemia (Hepatotoxicity [12]; Liver): 0 | HepSE_liver fatty (Hepatotoxicity [13]; Liver): 0 | HepSE_jaundice (Hepatotoxicity [14]; Liver): 0

COC(=O)C1=C(C)NC(C)=C(C(=O)OC(C)C)C1c1cccc2nonc12 (configuration not stated) [ISRADIPINE]
HepSE_hepatomegaly (Hepatotoxicity [1]): 0 | HepSE_Combined Scores (Hepatotoxicity [2]): 1 | HepSE_hepatitis (Hepatotoxicity [3]): 0 | HepSE_hepatic failure (Hepatotoxicity [4]): 0 | HepSE_cholecystitis (Hepatotoxicity [5]): 0 | HepSE_hepatic necrosis (Hepatotoxicity [6]): 0 | HepSE_liver disease (Hepatotoxicity [7]): 0 | HepSE_liver function tests abnormal (Hepatotoxicity [8]): 0 | HepSE_elevated liver function tests (Hepatotoxicity [9]): 1 | HepSE_cholelithiasis (Hepatotoxicity [10]): 0 | HepSE_cirrhosis (Hepatotoxicity [11]): 0 | HepSE_bilirubinemia (Hepatotoxicity [12]): 0 | HepSE_liver fatty (Hepatotoxicity [13]): 0 | HepSE_jaundice (Hepatotoxicity [14]): 0

CC(=O)OCC[N+](C)(C)C [ACETYLCHOLINE]
HepSE_hepatomegaly (Hepatotoxicity [1]; Liver): 0 | HepSE_Combined Scores (Hepatotoxicity [2]; Liver): 0 | HepSE_hepatitis (Hepatotoxicity [3]; Liver): 0 | HepSE_hepatic failure (Hepatotoxicity [4]; Liver): 0 | HepSE_cholecystitis (Hepatotoxicity [5]; Liver): 0 | HepSE_hepatic necrosis (Hepatotoxicity [6]; Liver): 0 | HepSE_liver disease (Hepatotoxicity [7]; Liver): 0 | HepSE_liver function tests abnormal (Hepatotoxicity [8]; Liver): 0 | HepSE_elevated liver function tests (Hepatotoxicity [9]; Liver): 0 | HepSE_cholelithiasis (Hepatotoxicity [10]; Liver): 0 | HepSE_cirrhosis (Hepatotoxicity [11]; Liver): 0 | HepSE_bilirubinemia (Hepatotoxicity [12]; Liver): 0 | HepSE_liver fatty (Hepatotoxicity [13]; Liver): 0 | HepSE_jaundice (Hepatotoxicity [14]; Liver): 0

CC(=O)N(O)CCCCCNC(=O)CCC(=O)N(O)CCCCCNC(=O)CCC(=O)N(O)CCCCCN [DEFEROXAMINE]
HepSE_hepatomegaly (Hepatotoxicity [1]): 0 | HepSE_Combined Scores (Hepatotoxicity [2]): 0 | HepSE_hepatitis (Hepatotoxicity [3]): 0 | HepSE_hepatic failure (Hepatotoxicity [4]): 0 | HepSE_cholecystitis (Hepatotoxicity [5]): 0 | HepSE_hepatic necrosis (Hepatotoxicity [6]): 0 | HepSE_liver disease (Hepatotoxicity [7]): 0 | HepSE_liver function tests abnormal (Hepatotoxicity [8]): 0 | HepSE_elevated liver function tests (Hepatotoxicity [9]): 0 | HepSE_cholelithiasis (Hepatotoxicity [10]): 0 | HepSE_cirrhosis (Hepatotoxicity [11]): 0 | HepSE_bilirubinemia (Hepatotoxicity [12]): 0 | HepSE_liver fatty (Hepatotoxicity [13]): 0 | HepSE_jaundice (Hepatotoxicity [14]): 0

O=P1(N(CCCl)CCCl)NCCCO1 (configuration not stated) [CYCLOPHOSPHAMIDE ANHYDROUS]
HepSE_hepatomegaly (Hepatotoxicity [1]; Liver): 1 | HepSE_Combined Scores (Hepatotoxicity [2]; Liver): 3 | HepSE_hepatitis (Hepatotoxicity [3]; Liver): 0 | HepSE_hepatic failure (Hepatotoxicity [4]; Liver): 0 | HepSE_cholecystitis (Hepatotoxicity [5]; Liver): 0 | HepSE_hepatic necrosis (Hepatotoxicity [6]; Liver): 0 | HepSE_liver disease (Hepatotoxicity [7]; Liver): 0 | HepSE_liver function tests abnormal (Hepatotoxicity [8]; Liver): 0 | HepSE_elevated liver function tests (Hepatotoxicity [9]; Liver): 0 | HepSE_cholelithiasis (Hepatotoxicity [10]; Liver): 0 | HepSE_cirrhosis (Hepatotoxicity [11]; Liver): 0 | HepSE_bilirubinemia (Hepatotoxicity [12]; Liver): 1 | HepSE_liver fatty (Hepatotoxicity [13]; Liver): 0 | HepSE_jaundice (Hepatotoxicity [14]; Liver): 1

CCN(CC)CCNC(=O)c1ccc(N)cc1 [PROCAINAMIDE]
HepSE_hepatomegaly (Hepatotoxicity [1]): 1 | HepSE_Combined Scores (Hepatotoxicity [2]): 2 | HepSE_hepatitis (Hepatotoxicity [3]): 0 | HepSE_hepatic failure (Hepatotoxicity [4]): 1 | HepSE_cholecystitis (Hepatotoxicity [5]): 0 | HepSE_hepatic necrosis (Hepatotoxicity [6]): 0 | HepSE_liver disease (Hepatotoxicity [7]): 0 | HepSE_liver function tests abnormal (Hepatotoxicity [8]): 0 | HepSE_elevated liver function tests (Hepatotoxicity [9]): 0 | HepSE_cholelithiasis (Hepatotoxicity [10]): 0 | HepSE_cirrhosis (Hepatotoxicity [11]): 0 | HepSE_bilirubinemia (Hepatotoxicity [12]): 0 | HepSE_liver fatty (Hepatotoxicity [13]): 0 | HepSE_jaundice (Hepatotoxicity [14]): 0
